Among the data in patent US7968720B2, “Secondary amines as renin inhibitors” (Actelion Pharmaceuticals Ltd., priority 2006, dated 2011) are IC50 values, retold here.

For the experiment, the target named is T1, recombinant human renin (Homo sapiens, UniProt P00797).
T1 sequence (P00797 67-406): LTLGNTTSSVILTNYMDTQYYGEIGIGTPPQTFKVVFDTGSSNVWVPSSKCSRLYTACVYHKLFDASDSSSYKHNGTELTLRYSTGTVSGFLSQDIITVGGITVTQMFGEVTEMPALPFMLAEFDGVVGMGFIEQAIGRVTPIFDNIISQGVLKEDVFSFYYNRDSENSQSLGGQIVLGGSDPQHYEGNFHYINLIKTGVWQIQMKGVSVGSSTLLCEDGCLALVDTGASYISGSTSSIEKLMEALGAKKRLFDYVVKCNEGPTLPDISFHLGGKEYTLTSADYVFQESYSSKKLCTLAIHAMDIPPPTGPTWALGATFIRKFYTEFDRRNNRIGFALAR
The experiment is described as follows: Primary renin inhibition assay: IC50 in buffer, 384 well MTP (AngI measured by EIA). It counts as biochemical. The conditions noted are these: human tetradecapeptide (1-14) substrate, incubated at 37° C. for 3 h, AngI quantified by EIA. The protocol: 1. Enzyme Immuno Assay (EIA) to Estimate AngI Accumulation and Renin Inhibition
1.1 Preparation of AngI-BSA Conjugate
1.3 mg (1 μmol) of AngI [1-10 (Bachem, H-1680)] and 17 mg (0.26 μmol) of BSA (Fluka, 05475) were dissolved in 4 mL of 0.1M phosphate buffer, pH 7.4, after which 2 mL of a 1:100 dilution of glutaraldehyde in H2O (Sigma G-5882) was added dropwise. The mixture was incubated overnight at 4° C., then dialyzed against 2 liters of 0.9% NaCl, twice for 4 h at rt, followed by dialysis against 2 liters of PBS 1× overnight at rt. The solution was then filtered with a Syringe filter, 0.45 μm (Nalgene, Cat. No. 194-2545). The conjugate can be stored in polypropylene tubes in 0.05% sodium azide at 4° C. for at least 12 months.
1.2 Preparation of BSA-AngI Coated MTP
Microtiter plates (MPT384, MaxiSorp™, Nunc) were incubated overnight at 4° C. with 80 μl of AngI (1-10)/BSA conjugate, diluted 1:100'000 in PBS 1× in a teflon beaker (exact dilution dependent on batch of conjugate), emptied, filled with 90 μl of blocking solution [0.5% BSA (Sigma A-2153) in PBS 1×, 0.02% NaN3], and incubated for at least 2 h at rt, or overnight at 4° C. 96 well MTP (MaxiSorp™, Nunc) were coated with 200 μl conjugate and blocked with 250 μl blocking solution as above, except that the blocking solution contained 3% BSA. The plates can be stored in blocking solution at 4° C. for 1 month.
1.3 AngI-EIA in 384 Well MTP
The AngI (1-10)/BSA coated MTP were washed 3 times with wash buffer (PBS 1×, 0.01% Tween 20) and filled with 75 μl of primary antibody solution (anti-AngI antiserum, pre-diluted 1:10 in horse serum), diluted to a final concentration of 1:100'000 in assay buffer (PBS 1×, 1 mM EDTA, 0.1% BSA, pH 7.4). 5 μl of the renin reaction (or standards in assay buffer) (see below) were added to the primary antibody solution and the plates were incubated overnight at 4° C. After the incubation the plates were washed 3 times with wash buffer and incubated with secondary antibody [anti-rabbit IgG, linked to horseradish peroxidase (Amersham Bioscience, NA 934V), diluted 1:2'000 in wash buffer] for 2 h at rt. The plates were washed 3 times with wash buffer and then incubated for 1 h at rt with substrate solution [1.89 mM ABTS (2,2′-azino-di-(3-ethyl-benzthiazolinsulfonate)] (Roche Diagnostics, 102 946) and 2.36 mM H2O2 [30%, (Fluka, 95300] in substrate buffer (0.1M sodium acetate, 0.05M sodium dihydrogen phosphate, pH 4.2). The OD of the plate was read at 405 nm in a microplate reader (FLUOStar Optima from BMG). The production of AngI during the renin reaction was quantified by comparing the OD of the sample with the OD of a standard curve of AngI(1-10), measured in parallel.
2. Primary Renin Inhibition Assay: IC50 in Buffer, 384 Well MTP
The renin assay was adapted from an assay described before (Fischli W. et al., Hypertension, 1991, 18:22-31) and consists of two steps: in the first step, recombinant human renin is incubated with its substrate (commercial human tetradecapeptide renin substrate) to create the product Angiotensin I (AngI). In the second step, the accumulated AngI is measured by an immunological assay (enzyme immuno assay, EIA). The detailed description of this assay is found below. The EIA is very sensitive and well suited for renin activity measurements in buffer or in plasma. Due to the low concentration of renin used in this assay (2 fmol per assay tube or 10 pM) it is possible to measure inhibitor affinities in this primary assay down to low pM concentration.
Recombinant human renin (3 pg/μl) in assay buffer (PBS 1×, 1 mM EDTA, 0.1% BSA, pH 7.4), human tetradecapeptide (1-14) substrate (Bachem, M-1120) [5 μM in 10 mM HCl], hydroxyquinoline sulfate (Fluka, 55100) [30 mM in H2O] and assay buffer were premixed at 4° C. at a ratio of 100:30:10:145. 47.5 μl per well of this premix was transferred into polypropylene plates (MTP384, Nunc). […]
A word on the IC50: it is the concentration needed to halve the response being measured. Consider `COCCc1ccc(Cl)c(CN(C(=O)[C@@H]2[C@@H](c3ccc(OCc4cc(-c5c(F)ccc(F)c5Cl)no4)cc3)C[C@@H]3CC[C@H]2N3)C2CC2)c1` [Example 60, (1R,2R,3S,5S)-3-{4-[3-(2-Chloro-3,6-difluoro-phenyl)isoxazol-5-ylmethoxy]-phenyl}-8-aza-bicyclo[3.2.1]octane-2-carboxylic acid [2-chloro-5-(2-methoxy-ethyl)benzyl]-cyclopropyl-amide], for which the IC50 is 0.26 nM.

For `COCCCc1ccc(Cl)c(CN(C(=O)C2=C(c3ccc(CCOc4c(Cl)cc(C)cc4Cl)cc3)C[C@@H]3CNC[C@H]2N3)C2CC2)c1` (racemic) [Example 1, (rac.)-(1R*,5S*)-7-{4-[2-(2,6-Dichloro-4-methyl-phenoxy)-ethyl]-phenyl}-3,9-diaza-bicyclo[3.3.1]non-6-ene-6-carboxylic acid [2-chloro-5-(3-methoxy-propyl)-benzyl]-cyclopropyl-amide], the IC50 came out at 0.2 nM.

Consider `O=C([C@H]1CNCC[C@@H]1c1ccc(OCc2cc(-c3c(F)ccc(F)c3Cl)no2)cc1)N(Cc1cc(CNCC(F)F)ccc1Cl)C1CC1` [Example 77, (3R,4S)-4-{4-[3-(2-Chloro-3,6-difluoro-phenyl)isoxazol-5-ylmethoxy]-phenyl}-piperidine-3-carboxylic acid {2-chloro-5-[(2,2-difluoro-ethylamino)-methyl]-benzyl}-cyclopropyl-amide], for which the IC50 worked out at 0.22 nM.
